Data reported in patent publication US9856250B2, “Substituted tropane derivatives” (TOA EIYO LTD., priority 2014, dated 2018).
Where two headings read alike, the source gives them in different places.

Target: human T-type calcium channels (human Cav3.2) (Homo sapiens (Human), UniProt O95180)
Experiment: Antagonistic activity against T-type calcium channels (Cav3.2), Fura2 intracellular calcium assay in HEK293 cells
Assay type: cell-based
Method: For representative compounds of the present invention, the antagonistic activity against T-type calcium channels (Cav3.2) was examined by the Test Examples described below. For the respective tests, human embryo kidney cells (HEK293 cells) in which human T-type calcium channels (human Cav3.2) were stably expressed were used.
The HEK293 cells having human Cav3.2 stably expressed therein were cultured at 37° C. in Alpha-MEM, to which 10% (v/v) fetal bovine serum (FBS), penicillin (100 U/mL), streptomycin (100 μg/mL), and G418 ([…]) had been added. The cells were suspended in the culture liquid and were inoculated onto a 96-well plate. Subsequently, the cells were cultured for 48 hours. The culture liquid was removed, and the liquid was changed to S-MEM, to which 5% (v/v) FBS, calcium chloride (0.5 mmol/L), L-glutamine (2 mmol/L), L-alanine (8.9 ng/mL), L-asparagine (13.2 ng/mL), L-aspartic acid (1.33 ng/mL), L-glutamic acid (14.7 ng/mL), glycine (7.5 ng/mL), L-proline (11.5 ng/mL, L-serine (10.5 ng/mL), penicillin (100 U/mL), and streptomycin (100 μg/mL) had been added. The cells were cultured for another 24 hours. The culture liquid was removed again, and the cells were washed with an assay buffer (140 mmol/L sodium chloride, 5 mmol/L potassium chloride, 0.5 mmol/L magnesium chloride, 0.5 mmol/L calcium chloride, 10 mmol/L glucose, 0.4 mmol/L magnesium sulfate, 10 mmol/L HEPES, and […] sulfinpyrazone, pH 7.4) that had been kept warm at 37° C. Subsequently, an assay buffer prepared by dissolving Fura2-AM, which is a fluorescent Ca^2+ indicator, to a concentration of 5 μM, was added to the cells, and the system was incubated for 30 minutes at 37° C. The assay buffer having Fura2 dissolved therein was removed, and the cells were washed with the assay buffer. Subsequently, an assay buffer prepared by adding a test compound was added to the cells, and the system was incubated for 15 minutes. The plate was mounted on a fluorescence analyzer (FLEX STATION II, Molecular Devices, LLC), and the baseline was measured for 20 seconds. Subsequently, any change in the intracellular calcium concentration that was induced when an assay buffer prepared by adding 100 mmol/L calcium chloride was added to the cells, was measured (excited at 340 nm or 380 nm, and detected at 510 nm). The fluorescence intensity ratios obtainable at the respective wavelengths were calculated.
Meanwhile, the test compound solution was prepared by dissolving each test compound in DMSO to a concentration of 10 mmol/L, and then adjusting the concentration with the assay buffer so as to obtain the set concentration. For the control solution, DMSO was used instead of a test compound.
The inhibitory activity level (%) of a test compound was calculated by subtracting the average value of the fluorescence intensity ratio for a period of 0 to 20 seconds after initiation of measurement, from the average value of the fluorescence intensity ratio for a period of 45 to 50 seconds after initiation of measurement, taking the value obtained using the control solution as the maximum activity of Cav3.2, and comparing this value with the activity in the presence of the test compound.
Calculation of IC50 Value:
The inhibitory activity of each test compound was measured at concentrations of […], and the IC50 value was calculated using the curve fitting formula (Model 08: sigmoidal inhibition curve) of ASSAY EXPLORER (Symyx Technologies, Inc.).
Average of RFU value obtained for 25 to 30 seconds after the addition of a […] assay buffer after treatment with the control solution (for 45 to 50 seconds after the initiation of measurement). The RFU in the formula represents the Relative Fluorescence Unit.

[1] = HEK293 cells stably expressing human Cav3.2, Fura2 fluorescence ratio after calcium chloride addition, read-out: IC50

Sequence of human T-type calcium channels (human Cav3.2) (O95180 whole entry): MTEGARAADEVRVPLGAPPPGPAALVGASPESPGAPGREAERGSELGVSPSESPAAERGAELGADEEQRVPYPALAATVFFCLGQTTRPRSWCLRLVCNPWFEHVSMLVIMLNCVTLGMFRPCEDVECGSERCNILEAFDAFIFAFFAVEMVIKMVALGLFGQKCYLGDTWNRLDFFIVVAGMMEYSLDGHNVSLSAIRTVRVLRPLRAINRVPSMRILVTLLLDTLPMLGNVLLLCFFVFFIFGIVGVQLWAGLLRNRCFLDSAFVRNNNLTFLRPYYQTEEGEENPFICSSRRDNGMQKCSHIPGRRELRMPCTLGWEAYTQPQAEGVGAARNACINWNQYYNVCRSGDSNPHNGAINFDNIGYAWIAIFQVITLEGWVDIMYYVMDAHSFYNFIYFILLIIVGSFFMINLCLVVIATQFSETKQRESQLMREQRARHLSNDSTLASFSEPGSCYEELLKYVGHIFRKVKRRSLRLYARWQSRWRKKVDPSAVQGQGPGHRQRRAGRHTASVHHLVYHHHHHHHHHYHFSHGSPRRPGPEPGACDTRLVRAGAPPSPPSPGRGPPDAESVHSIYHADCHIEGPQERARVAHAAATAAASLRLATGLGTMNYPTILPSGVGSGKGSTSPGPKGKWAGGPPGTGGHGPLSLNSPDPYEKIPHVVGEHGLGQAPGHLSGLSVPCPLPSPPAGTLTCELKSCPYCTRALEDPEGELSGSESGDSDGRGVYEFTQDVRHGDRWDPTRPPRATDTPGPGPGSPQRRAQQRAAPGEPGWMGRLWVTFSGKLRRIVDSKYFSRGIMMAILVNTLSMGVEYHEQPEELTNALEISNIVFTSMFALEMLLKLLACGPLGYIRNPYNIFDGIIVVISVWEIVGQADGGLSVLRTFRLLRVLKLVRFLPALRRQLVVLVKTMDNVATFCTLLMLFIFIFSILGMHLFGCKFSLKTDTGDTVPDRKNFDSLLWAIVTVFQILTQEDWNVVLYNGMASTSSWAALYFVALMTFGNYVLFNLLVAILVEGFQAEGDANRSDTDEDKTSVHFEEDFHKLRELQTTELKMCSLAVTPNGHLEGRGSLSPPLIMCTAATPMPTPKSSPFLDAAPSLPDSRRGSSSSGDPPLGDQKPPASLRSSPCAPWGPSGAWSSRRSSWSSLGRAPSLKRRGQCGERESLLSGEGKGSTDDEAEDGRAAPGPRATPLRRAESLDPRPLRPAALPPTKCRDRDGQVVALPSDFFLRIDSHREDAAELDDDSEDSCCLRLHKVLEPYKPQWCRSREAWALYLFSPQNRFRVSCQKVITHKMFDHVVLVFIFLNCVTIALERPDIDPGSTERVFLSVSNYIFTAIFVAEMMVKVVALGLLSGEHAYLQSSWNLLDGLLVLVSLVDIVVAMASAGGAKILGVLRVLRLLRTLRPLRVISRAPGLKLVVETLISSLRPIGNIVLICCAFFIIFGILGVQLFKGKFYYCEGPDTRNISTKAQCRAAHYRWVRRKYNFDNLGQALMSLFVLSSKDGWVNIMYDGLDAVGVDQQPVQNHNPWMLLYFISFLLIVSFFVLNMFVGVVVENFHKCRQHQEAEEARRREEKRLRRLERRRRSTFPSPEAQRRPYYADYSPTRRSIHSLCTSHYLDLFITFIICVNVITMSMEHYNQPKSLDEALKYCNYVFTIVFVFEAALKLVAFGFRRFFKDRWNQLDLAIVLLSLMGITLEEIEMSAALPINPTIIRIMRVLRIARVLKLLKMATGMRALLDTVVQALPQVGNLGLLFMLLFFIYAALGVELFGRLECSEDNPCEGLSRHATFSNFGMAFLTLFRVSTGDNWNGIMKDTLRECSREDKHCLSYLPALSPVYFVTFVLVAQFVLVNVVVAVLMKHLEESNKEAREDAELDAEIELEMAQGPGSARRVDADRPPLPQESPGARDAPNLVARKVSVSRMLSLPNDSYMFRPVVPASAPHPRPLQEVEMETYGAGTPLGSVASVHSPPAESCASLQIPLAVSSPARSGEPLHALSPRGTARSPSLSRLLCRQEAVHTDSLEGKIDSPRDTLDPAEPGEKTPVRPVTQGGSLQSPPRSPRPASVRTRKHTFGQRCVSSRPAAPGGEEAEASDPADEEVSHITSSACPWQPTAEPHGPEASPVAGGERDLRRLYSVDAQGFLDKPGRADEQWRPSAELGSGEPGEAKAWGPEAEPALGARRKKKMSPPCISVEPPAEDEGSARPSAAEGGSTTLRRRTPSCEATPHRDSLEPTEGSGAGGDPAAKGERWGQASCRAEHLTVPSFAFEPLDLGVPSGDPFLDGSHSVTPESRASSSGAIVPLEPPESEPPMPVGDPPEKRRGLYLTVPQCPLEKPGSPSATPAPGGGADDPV

Row | SMILES | IC50 [1] | IC50
1 | CC(C)(C)NC(=O)CN1[C@@H]2CC[C@H]1C[C@H](CC(=O)Nc1cccc(Cl)c1)C2 [Example 1, 2-[(exo)-8-(tert-Butylcarbamoyl)methyl-8-azabicyclo[3.2.1]octan-3-yl]-N-(3-chlorophenyl)acetamide] | 68 nM | –
2 | COc1cc(F)cc(NC(=O)C[C@@H]2C[C@H]3CC[C@@H](C2)N3CC(=O)NC(C)(C)C)c1 [Example 3] | 69 nM | –
3 | CC(C)(C)NC(=O)CN1[C@@H]2CC[C@H]1C[C@H](CC(=O)NC13CC4CC(CC(C4)C1)C3)C2 [Example 4, N-(Adamantan-1-yl)-2-[(exo)-8-(tert-butylcarbamoyl)methyl-8-azabicyclo[3.2.1]octan-3-yl]acetamide] | 82 nM | –
4 | CC(C)(C)NC(=O)CN1[C@@H]2CC[C@H]1C[C@H](CNC(=O)c1coc3ccccc13)C2 [Example 11, N-[(exo)-8-(tert-Butylcarbamoyl)methyl-8-azabicyclo[3.2.1]octan-3-yl]methylbenzofuran-3-carboxamide] | 3 nM | –
5 | CC(C)(C)NC(=O)CN1[C@@H]2CC[C@H]1C[C@H](CNC(=O)c1csc3c1CCCC3)C2 [Example 16] | 47 nM | –
6 | CC(C)(C)NC(=O)CN1[C@@H]2CC[C@H]1C[C@H](CNC(=O)CC13CC4CC(CC(C4)C1)C3)C2 [Example 18] | – | 73 nM
7 | Cc1oc2c(c1C(=O)NC[C@@H]1C[C@H]3CC[C@@H](C1)N3CC(=O)NC(C)(C)C)CCCC2 [Example 19] | – | 48 nM
8 | Cc1cc(C(=O)NC[C@@H]2C[C@H]3CC[C@@H](C2)N3CC(=O)NC(C)(C)C)n(C)n1 [Example 23] | 203 nM | –
9 | Cn1cc(C(=O)NC[C@@H]2C[C@H]3CC[C@@H](C2)N3CC(=O)NC(C)(C)C)c2ccccc21 [Example 24] | – | 78 nM
10 | CC(C)(C)NC(=O)CN1[C@@H]2CC[C@H]1C[C@H](CNC(=O)C(C)(C)Oc1ccc(C3CC3(Cl)Cl)cc1)C2 (some centres unmarked) [Example 27] | 94 nM | –
11 | CC(C)(C)NC(=O)CN1[C@@H]2CC[C@H]1C[C@H](CNC(=O)C(C)(C)Oc1ccccc1)C2 [Example 28] | 65 nM | –
12 | CC(C)(C)NC(=O)CN1[C@@H]2CC[C@H]1C[C@H](CNC(=O)C(C)(C)Oc1cccc(Cl)c1)C2 [Example 31] | – | 73 nM
13 | COc1cccc(OC(C)(C)C(=O)NC[C@@H]2C[C@H]3CC[C@@H](C2)N3CC(=O)NC(C)(C)C)c1 [Example 32] | 98 nM | –
14 | CCn1cc(C(=O)NC[C@@H]2C[C@H]3CC[C@@H](C2)N3CC(=O)NC(C)(C)C)c2ccccc21 [Example 36] | – | 49 nM
15 | Cc1c(C(=O)NC[C@@H]2C[C@H]3CC[C@@H](C2)N3CC(=O)NC(C)(C)C)c2ccccc2n1C [Example 37] | – | 67 nM
16 | Cn1cc(C(=O)NC[C@@H]2C[C@H]3CC[C@@H](C2)N3CC(=O)NC2(C(F)(F)F)CC2)c2ccccc21 [Example 45] | – | 103 nM
17 | CC(C)(C)NC(=O)CN1[C@@H]2CC[C@H]1C[C@H](CNC(=O)c1cccc(Cl)c1)C2 [Example 52] | 48 nM | –
18 | COc1cc(Cl)cc(C(=O)NC[C@@H]2C[C@H]3CC[C@@H](C2)N3CC(=O)NC(C)(C)C)c1 [Example 53] | 49 nM | –
19 | Cc1cc(F)cc(C(=O)NC[C@@H]2C[C@H]3CC[C@@H](C2)N3CC(=O)NC(C)(C)C)c1 [Example 55] | 36 nM | –
20 | COc1cc(F)cc(C(=O)NC[C@@H]2C[C@H]3CC[C@@H](C2)N3CC(=O)NC(C)(C)C)c1 [Example 56] | – | 34 nM
21 | CC(C)(C)NC(=O)CN1[C@@H]2CC[C@H]1C[C@H](CNC(=O)c1ccc3c(c1)CCCO3)C2 [Example 59] | 61 nM | –
22 | CC(C)(C)NC(=O)CN1[C@@H]2CC[C@H]1C[C@H](CNC(=O)c1cccc3c1CCC3)C2 [Example 60] | 78 nM | –
23 | CC(C)(C)NC(=O)CN1[C@@H]2CC[C@H]1C[C@H](CNC(=O)C13CC4CC(CC(C4)C1)C3)C2 [Example 65] | 99 nM | –
24 | CC(C)(C)NC(=O)CN1[C@@H]2CC[C@H]1C[C@H](CNC(=O)C1C(C)(C)C1(C)C)C2 [Example 67] | 42 nM | –

Row | SMILES | IC50 [1] | IC50
25 | Cn1nc(C(C)(C)C)cc1C(=O)NC[C@@H]1C[C@H]2CC[C@@H](C1)N2CC(=O)NC(C)(C)C [Example 69] | 51 nM | –
26 | CC(C)(C)CCC(=O)NC[C@@H]1C[C@H]2CC[C@@H](C1)N2CC(=O)NC(C)(C)C [Example 71] | 64 nM | –
27 | COc1cc(C)cc(C(=O)NC[C@@H]2C[C@H]3CC[C@@H](C2)N3CC(=O)NC(C)(C)C)c1 [Example 72] | 55 nM | –
28 | CC(C)(C)NC(=O)CN1[C@@H]2CC[C@H]1C[C@H](CNC(=O)C1CCCCC1)C2 [Example 74] | – | 101 nM
29 | CC(C)(C)NC(=O)CN1[C@@H]2CC[C@H]1C[C@H](CNC(=O)c1ccc(Cl)cc1)C2 [Example 77] | – | 22 nM
30 | CC(C)(C)NC(=O)CN1[C@@H]2CC[C@H]1C[C@H](CNC(=O)c1ccc(F)cc1)C2 [Example 78] | 44 nM | –
31 | CC(C)(C)NC(=O)CN1[C@@H]2CC[C@H]1C[C@H](CNC(=O)c1cc(F)cc(C#N)c1)C2 [Example 79] | – | 45 nM
32 | Cc1ccc(C(=O)NC[C@@H]2C[C@H]3CC[C@@H](C2)N3CC(=O)NC(C)(C)C)s1 [Example 81] | 93 nM | –
33 | CCc1oc2ccccc2c1C(=O)NC[C@@H]1C[C@H]2CC[C@@H](C1)N2CC(=O)NC(C)(C)C [Example 84] | – | 10 nM
34 | Cc1oc2ccccc2c1C(=O)NC[C@@H]1C[C@H]2CC[C@@H](C1)N2CC(=O)NC(C)(C)C [Example 85] | – | 15 nM
35 | COc1ccc2oc(C)c(C(=O)NC[C@@H]3C[C@H]4CC[C@@H](C3)N4CC(=O)NC(C)(C)C)c2c1 [Example 86] | – | 91 nM
36 | Cc1oc2c(c1C(=O)NC[C@@H]1C[C@H]3CC[C@@H](C1)N3CC(=O)NC1(C(F)(F)F)CC1)CCCC2 [Example 95] | – | 88 nM
37 | COc1cc(C)cc(C(=O)NC[C@@H]2C[C@H]3CC[C@@H](C2)N3CC(=O)NC2(C(F)(F)F)CC2)c1 [Example 96] | 58 nM | –
38 | Cn1cc(C(=O)NC[C@@H]2C[C@H]3CC[C@@H](C2)N3CC(=O)NC(C)(C)C)c2cc(Cl)ccc21 [Example 100, N-[(exo)-8-(tert-Butylcarbamoyl)methyl-8-azabicyclo[3.2.1]octan-3-yl]methyl-5-chloro-1-methyl-1H-indole-3-carboxamide] | 85 nM | –
39 | COCC(C)(C)NC(=O)CN1[C@@H]2CC[C@H]1C[C@H](CNC(=O)c1cc(F)cc(Cl)c1)C2 [Example 104, 3-Chloro-5-fluoro-N-{(exo)-8-[(2-methoxy-1,1-dimethylethyl)carbamoyl]methyl-8-azabicyclo[3.2.1]octan-3-yl}methylbenzamide] | 13 nM | –
40 | CC(C)(C)NC(=O)CN1[C@@H]2CC[C@H]1C[C@H](CNC(=O)C13CC4CC(CC1C4)C3)C2 [Example 107] | – | 49 nM
41 | O=C(CN1[C@@H]2CC[C@H]1C[C@H](CNC(=O)C13CC4CC(CC1C4)C3)C2)NC1(CO)CCCC1 [Example 109] | – | 94 nM
42 | CC1(NC(=O)CN2[C@@H]3CC[C@H]2C[C@H](CNC(=O)c2cc(F)cc(Cl)c2)C3)COC1 [Example 112] | 93 nM | –
43 | CC(C)(C)NC(=O)CN1[C@@H]2CC[C@H]1C[C@H](CNC(=O)c1cccc(F)c1)C2 [Example 113] | – | 39 nM
44 | O=C(CN1[C@@H]2CC[C@H]1C[C@H](CNC(=O)c1cc(F)cc(Cl)c1)C2)NC1(C(F)(F)F)CC1 [Example 114] | 70 nM | –
45 | CC1(NC(=O)CN2[C@@H]3CC[C@H]2C[C@H](CNC(=O)c2cc(F)cc(Cl)c2)C3)CC1 [Example 115] | 63 nM | –
46 | CN(C(=O)CN1[C@@H]2CC[C@H]1C[C@H](CNC(=O)c1cc(F)cc(Cl)c1)C2)C(C)(C)C [Example 118] | 78 nM | –
47 | Cc1cccc2[nH]c(C[C@@H]3C[C@H]4CC[C@@H](C3)N4CC(=O)NC(C)(C)C)nc12 [Example 120, N-tert-Butyl-2-[(exo)-3-(4-methyl-1H-benzimidazol-2-yl)methyl-8-azabicyclo[3.2.1]octan-8-yl]acetamide] | 59 nM | –
